In publication PMC12048447, “PANTAX: a phase Ib clinical trial of the efflux pump inhibitor SCO-101 in combination with gemcitabine and nab-paclitaxel in non-resectable or metastatic pancreatic cancer” (Investigational New Drugs, 2025):

Legend:
wild-type PANC-1 cells = test: Crystal violet combination assay in wild-type PANC-1 cells; assay type: cell-based, human; details: 120 h drug incubation
Protocol: For the crystal violet assay, cells were seeded into 6-well plates at a density of 40,000 cells/well or into 48-wells with 4000 cells/well. One day after seeding, the cells were experimentally treated. Control conditions consisted of either growth medium (‘untreated’) or DMSO diluted in growth medium. All treatments were performed in triplicates. The cells were then kept in the CO2 incubator at 37 °C until staining with crystal violet dye for 10mins and let to dry overnight. The following day crystal violet dye was dissolved using 20% acetic acid and absorbance was measured at 570 nm.
Experiments with 4 different concentrations of either SCO-101 or paclitaxel and their combinations were applied to test for synergy among these two compounds in both the PANC-1 parental and -Paclitaxel resistant cells. […] The SRPK1 inhibitor SPHINX31 was tested at 0.1; 0.5; 1 and 5 µM. The SRPK1 inhibitor SRPIN was tested at 1; 5; 10 and 50 µM. Both inhibitors were tested in combination with 5, 10, 15 and 20 nM Paclitaxel.
A) the resistant PANC-1-Pac and B) the sensitive parental PANC-1 cell lines. Cells were either 1) untreated, 2) incubated with 30µM SCO-101, 3) 40µM SCO-101, 4) 4nM paclitaxel, 5) 30µM SCO-101 + 4nM paclitaxel or 6) 40µM SCO-101 + 4nM paclitaxel. Drug incubation for 120 hours was followed by staining with crystal violet.

[1] = PANTAX phase Ib: plasma pharmacokinetics of SCO-101; assay type: in vivo, human
Protocol: Pharmacokinetics (PK) blood samples were drawn during the first cycle of treatment on day one of SCO-101 administration (6 time points), on day six (6 time points), and on day nine (72 h after last SCO-101 treatment). Plasma samples were analyzed for SCO-101 using a bioanalytical method (BM/2020/0998) developed and validated under study KF64YR at LabCorp (England). SCO-101 was extracted from human plasma by protein precipitation and analyzed by liquid chromatography using tandem mass spectrometry (LC–MS/MS). Pharmacokinetic parameters were determined by noncompartmental analysis using the software package SAS (version 9.4 or higher). The PK profile of SCO-101 was evaluated by maximum drug plasma concentration (Cmax) and area under the plasma drug concentration–time curve (AUC0 to 8 h).

[2] = system: patients with non-resectable or metastatic PDAC; test: PANTAX phase Ib: efficacy (RECIST v1.1, PFS, OS, Ca 19-9); assay type: in vivo, human; details: SCO-101 with Gem and Nab
From the text: The PANTAX trial was a prospective, international multicenter phase Ib open-label, non-randomized, dose-escalation study aiming to determine the MTD, safety, and tolerability of SCO-101 when combined with Gem and Nab in patients with non-resectable or metastatic PDAC (Protocol nr. SCO101-002, EudraCT nr. 2020–002627-11; ClinicalTrials.gov identifier NCT04652206). Furthermore, the study aimed to establish the pharmacokinetic profile of SCO-101 in combination with Gem and Nab. ORR, clinical benefit rate (CBR), median progression free survival (mPFS), and mOS were included as secondary end points.
Tumor evaluation by CT and MRI scans were done every 8 weeks. Response was determined according to RECIST v 1.1 [21] by local assessment. ORR was determined as the percentage of evaluable patients experiencing a complete response (CR) or partial response (PR). CBR was determined as the percentage of evaluable patients experiencing response or stable disease (SD) for over 16 weeks. Date of study inclusion was the index date. For assessment of PFS, the date of PD was the date of imaging showing progression or date of last treatment in patients with deteriorating clinical condition. Patients not followed until progression were censored for PFS at the date of last follow-up. One patient was lost to follow-up for survival and was censored from OS analysis on the date of last visit. End of study was 6 months after the last patients last treatment visit.

[3] = system: patients with colorectal cancer; details: SCO-101 with FOLFIRI, patients with prior progression on FOLFIRI, cited from earlier work

Question: Which results are given for O=C(Nc1cc(C(F)(F)F)cc(C(F)(F)F)c1)Nc1ccc(Br)cc1-c1nnn[nH]1 [SCO-101]?
Answer: combination effect of SCO-101 and paclitaxel (wild-type PANC-1 cells): no combination effect; increase in exposure with dose ([1]; 50-250 mg daily, Cmax and AUC0-8 h): approximately dose proportional; fraction of SCO-101 Cmax present at day 9 ([1]; average, 200 mg and 250 mg doses, 72 h after last SCO-101 treatment): 33%; accumulation of Cmax and AUC0-8 h ([1]; daily doses for 6 consecutive days, plasma, patients): two- to threefold; patients with reduction of serum Ca 19-9 of at least 25% ([2]; 15 patients with elevated Ca 19-9 at treatment initiation): 53%; objective response rate (ORR) ([2]; 15 evaluable patients): 6.7%; median progression-free survival (mPFS) ([2]; CI 1.7-9.2 months): 3.3 months; median overall survival (mOS) ([2]; CI 5.7-16 months): 9.5 months; clinical benefit rate (CBR) ([2]; response or SD over 16 weeks, 15 evaluable patients): 33%; tumor response ([3]; 4 of 25 patients): 16%; mOS [3]: 10.4 months
